Reference: patent US20160082133A1, “CHEMICAL EXCHANGE SATURATION TRANSFER (CEST) BASED MRI USING REPORTER GENES AND SUBSTRATES AND METHODS THEREOF” (The Johns Hopkins University, priority 2013, published 2016)

How the values were obtained:
[1] = In vitro CEST-MRI of thymidine analogues at 11.7 T; assay type: physicochemical; conditions: pH 7.4, 37° C.
Experimental: All compounds were dissolved at a concentration of 20 mM in phosphate-buffered saline (PBS) (pH=7.4) and placed in microcapillaries, as described previously.^17 CESTMRI experiments were performed on a vertical 11.7 T scanner (Bruker Avance system) at 37° C. A modified RARE sequence (TR/TE=10 000/9.4 ms; RARE factor=16; 1 mm slice thickness; FOV=11×11 mm^2; matrix size=64×32; resolution=0.17×0.34 mm^2; and NA=2) including a magnetization transfer (MT) module ([…]) was used to acquire CEST-weighted images from −8 to +8 ppm with increments of 0.2 ppm around the water resonance, which was assigned to be at 0 ppm. Pixel-based B0 correction was used as described before using the same parameters as above except for TR=1500 ms and B1/tsat=21 Hz/500 ms, with a sweep range from −2 to +2 ppm (0.1 ppm steps). Data processing was performed using custom-written scripts in MATLAB (Mathworks). Mean CEST spectra were plotted from an ROI for each sample, after B0 correction. MTRasym=100×(S^−Aω−S^AωA/^‘−’0)/3 was computed at different offsets Aω.

HSV1-TK over m-TK = test: Kinase assay with HEK-293FT cell extracts (293^HSV1-tk vs 293^wt); assay type: biochemical; conditions: 5 μM substrate, 2 μL cell extract; specificity HSV1-TK over m-TK
Experimental: In a solid white 96-well plate, 5 μM substrate (dT, compounds 1, 2, or 3; N=4 for each substrate) and 20 μM ATP were dissolved in 48 μL of kinase reaction buffer (40 mM Tris; pH=7.5, 20 mM MgCl2, and 0.1 mg/mL BSA) followed by the addition of 2 μL of purified HSV1-TK to initiate the kinase reaction. Eight wells without substrate were included as the control reference. The plate was incubated at room temperature for 2 h, after which 50 μL of Kinase-Glo luciferase reagent (Kinase-Glo max luminescent kinase assay, Promega Inc.) was added. After […], the resulting luminescence values were recorded and used to quantify the residual ATP in the reaction. The relative phosphorylation (%) was then defined as the luminescence signal obtained after the enzymatic reaction (substrate+HSV1-TK+ATP) relative to the signal obtained from wells without substrate (HSV1-TK+ATP). For a phosphorylation assay performed on HEK-293FT lysates, 2 μL of cell extract (either ^293HSV1-tk or 293^wt cells) was used instead of purified HSV1-TK, and the assay was performed using 1 or 2 as the substrate according to the procedure described above.

HSV1-TK [2] = molecular target: T1, HSV1-TK (Human herpesvirus 1, UniProt P0DTH5); assay type: in vivo, mice
T1 construct: V5; expressed in transfected cells; host or cells: 9L rat glioma cells transfected with pcDNA3.1-HSV1-tk, single G418-selected clone, implanted in NOD-SCID mouse brain
From the text: (§1) At the last time point of the experiment the full CEST-spectrum was acquired for each animal with the same parameters described in the Experimental Section (main text) except the followings: CEST-weighted images were acquired with a modified RARE pulse sequence (TR/TE=6000/35 ms), using a 213 Hz/4000 ms saturation pulse from −6 to +6 ppm around the water resonance, which was assigned to be at 0 ppm. Pixel-based B0 correction was used as described before (Kim, M. et al. Magn Reson Med 2009, 61, 1441) using the same parameters as above except for TR=1500 ms, B1/tsat=21 Hz/500 ms, with a sweep range from −1 to +1 ppm (0.1 ppm steps). Mean CEST spectra were plotted from an ROI for each tumor and normal brain tissue, after B0 correction. MTRasym=100×(S^−Δω−S^Δω)/S0 was computed at different offsets Δω.
(§2) pcDNA3.1-HSV1-tk was used to transfect 9L rat glioma cells. A single clone was selected with 0.5 mg/mL G418 antibiotics. 9L^HSV1-tk and nontransfected wild type 9L cells (9L^wt) were inoculated (2×10^5 cells/2 μL saline) bilaterally into the striatum of adult NOD-SCID male mice to generate intracranial 9L tumors in both hemispheres.
(§3) Data were acquired using a horizontal 11.7 T MRI scanner (Bruker, Biospec) equipped with a circular polarized MRI transceiver coil (i.d.=23 mm) Seven days after cell transplantation, mice were anesthetized with 1.5% isoflurane, and a series of […] CEST data sets were obtained at 1, 2, and 3 h following intravenous (iv) injection of 2 in saline (150 mg/kg body). CEST weighted images were acquired with a modified RARE pulse sequence (TR/TE=6000/35 ms), using a 213 Hz/4000 ms saturation pulse alternating between ±5 ppm frequency offsets from the water frequency. For each time point, the MTRasym map was calculated from four pairs of s−5 ppm/s+5 ppm using MATLAB (Mathworks). A single 1 mm slice with FOV of 1.6×1.6 cm^2 and a 128×48 matrix was used.

HSV1-TK [3] = assay type: in vivo, mice; conditions: 3 h after iv injection, 150 mg/kg, 5 ppm, n=8
From the text: as §1, §2, §3

9L^HSV1-tk cells = test: In vitro detection of accumulation with MR spectroscopy; assay type: cell-based, rat; conditions: 9L^HSV1-tk cells incubated 3.5 h
Experimental: At least two distinctive peaks, typical to 2, appear in the spectra of the pure compound (black), a singlet at 1.22 ppm (6H of the 2 Methyls) and a triplet at 6.29 ppm (1H, the proton on 1′ carbon of the sugar). Both peaks appear in the lysate of cells incubated with the compound (red spectra) but not in the control (blue spectra). The samples were prepared using dual-phase extraction for simultaneous extraction of cellular lipids and water-soluble metabolite. Twenty five million cells (9L^HSV1-tk) were incubated with or without 2 for 3.5 h. After dual-phase extraction and lyophilizing of the water from the water-soluble fraction, the soluble intracellular contents were dissolved in D2O for the ^1H-NMR experiments. Fully relaxed ^1H-NMR spectra of the extracts were acquired on a Bruker 500 MHz scanner. The signal integrals of the typical functional groups of 2 (methyl groups —(CH3)2 at 1.22 ppm and of the CH on the C-1′ position of the sugar moiety at 6.29 ppm) and of the standard TSP (0 ppm) were determined. Then, the mM intracellular concentration of 2 was calculated as shown previously (Glunde, K. et al., Cancer Res 2005, 65, 11034) and found to be 0.37 mM.

[4] = at 5 ppm for 20 nM agent (so in the source)

T1 sequence (P0DTH5 whole entry): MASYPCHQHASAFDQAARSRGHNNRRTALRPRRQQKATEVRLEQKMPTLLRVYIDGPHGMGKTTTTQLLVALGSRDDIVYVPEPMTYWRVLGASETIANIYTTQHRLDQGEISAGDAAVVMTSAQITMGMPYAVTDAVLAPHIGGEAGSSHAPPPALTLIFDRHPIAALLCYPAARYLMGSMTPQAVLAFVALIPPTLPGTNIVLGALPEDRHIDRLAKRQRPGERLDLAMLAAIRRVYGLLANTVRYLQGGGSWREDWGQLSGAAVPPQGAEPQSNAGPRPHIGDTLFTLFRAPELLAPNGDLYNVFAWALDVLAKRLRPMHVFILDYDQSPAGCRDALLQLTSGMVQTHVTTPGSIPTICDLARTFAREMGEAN

CC1(C)CN([C@H]2C[C@H](O)[C@@H](CO)O2)C(=O)NC1=O [Compound 2, 5-Methyl-5,6-dihydrothymidine]
MTRasym (8.5 Hz) [1, 4]: 4% | MTRasym (170 Hz) [1, 4]: 16% | MTRasym (213 Hz) [1, 4]: 21% | MTRasym (128 Hz) ([1]; at 5 ppm for 20 mM agent): 10% | increase in phosphorylation with respect to control extract (293^wt), factor relative to that of 1 (HSV1-TK over m-TK): about 10 | average difference in ΔMTRasym between the two tumor types (full CEST spectrum) (HSV1-TK [2]; 5.0 ppm, last time point, N=8): approximately 0.77% | normalized mean MTRasym values (ΔMTRasym), 9L^HSV1-tk tumor (HSV1-TK [2]; 3 h after iv injection, 150 mg/kg, 5 ppm, n=8): 4.5±1.5 | estimated intracellular concentration in 9L^HSV1-tk tumors (HSV1-TK [2]; from calibration curve, in vivo): approximately 0.7 mM | normalized mean MTRasym values (ΔMTRasym), 9L^wt tumor (HSV1-TK [3]): 2.0±1.7 | intracellular concentration by 1H-NMR (9L^HSV1-tk cells): 0.37 mM
